The source of these data is patent US12110258B2, “Coated fertilizer containing urease inhibitor” (SABIC Agri-Nutrients Company, priority 2018, dated 2024).

A short description of the series: Inhibitor Stability Test (HPLC, non-degraded NBTPT remaining after storage). Conditions: 2 weeks, RT (23 to 26° C.).

Description: Inhibitor Stability Test: The stability test is used to indicate changes in stability of the urease inhibitor in different coated fertilizers or coating compositions under multiple conditions for different amounts of time. HPLC analysis was used to determine the amount of non-degraded inhibitor remaining at the end of the testing periods. Briefly, for the HPLC analysis procedure, approximately 4 grams of a sample and 20 ml of diluent was added into a 50 ml polypropylene tube. The sample was sonicated for 30 minutes with intermediate shaking and then vortexed for 1 hour using a vortex shaker. After vortexing, the sample was filtered using a 0.45μ syringe filter into a HPLC vial and injected into the HPLC.
Chromatographic Conditions:
• Column: Phenomenex, Luna 5u Pnenyl hexyl 250*4.6, 5μ • Column oven temperature: 350° C. • Injection Vol.: 5 μL • Flow rate: 1.00 mL/min • Mobile Phase: Reservoir A—Milli Q Water; Reservoir C—Acetonitrile; Isocratic—Milli Q water/Acetonitrile (80:20% v/v) • Run Time: 15 minutes • Wavelength: 207 nm
Calculation: Calibration standards were injected in duplicate and the calibration curve for NBTPT was constructed by plotting the concentration (mg/mL) in X-axis and Instrument response (area) in the Y-axis. The unknown concentrations of NBTPT in the samples were calculated using the formula y=mx+c with the appropriate dilution factor applied. […]

On to `CCCCNP(N)(N)=S` [compound 4, N-(n-butyl) thiophosphoric triamide], for which the “% NBTPT Degradation” value is listed as 0%.
